Test results reported in publication PMC6522510 (Nature Communications, 2019).

Experiments:
Assay in all cases: cells
Parameters in all cases: species or system AML cell lines (8); Secondary HTS, 10-point dose-response in triplicate, Cell Titer Glo viability, four-parameter fit EC50
[1] = system: U937; conditions: Homo sapiens, U-937, 72 h, read-out: U937
[2] = system: CHRF288-11; conditions: 72 h, read-out: CHRF288-11
[3] = system: CMK; conditions: Homo sapiens, CMK, 72 h, read-out: CMK
[4] = system: ML-2; conditions: Homo sapiens, ML-2, 72 h, read-out: ML-2
[5] = system: M07e; conditions: M-07e, 72 h, read-out: M07e
[6] = system: MOLM-13; conditions: Homo sapiens, MOLM-13, 72 h, read-out: MOLM-13
[7] = system: CMS; conditions: 72 h, read-out: CMS
[8] = system: MV4-11; conditions: Homo sapiens, MV4-11, 72 h, read-out: MV4-11

Row | EC50 [1] [µM] | EC50 [6] [µM] | EC50 [8] [µM] | SMILES | EC50 [2] [µM] | EC50 [3] [µM] | EC50 [4] [µM] | EC50 [5] [µM] | EC50 [7] [µM]
1 | > 10 | > 10 | > 10 | CCn1c(=O)c(-c2cc[nH]n2)cc2c(C)nc(N)nc21 [SAR245409] | > 10 | > 10 | > 10 | > 10 | > 10
2 | > 10 | > 10 | > 10 | NC(=O)c1ccc(-c2nc(-c3ccc4c(c3)OCO4)c(-c3ccccn3)[nH]2)cc1 [SB-431542] | > 10 | > 10 | > 10 | > 10 | > 10
3 | > 10 | > 10 | > 10 | Nc1ncnc2c1ncn2[C@@H]1O[C@H](C[C@@H](N)CC[C@H](N)C(=O)O)[C@@H](O)[C@H]1O [SINEFUNGIN] | > 10 | > 10 | > 10 | > 10 | > 10
4 | > 10 | > 10 | > 10 | O=C1NC(=O)/C(=C/c2cccc(C(F)(F)F)c2)S1 [SJ000006739, SMI-4A] | > 10 | > 10 | > 10 | > 10 | > 10
5 | > 10 | > 10 | > 10 | CCOC(=O)c1cc2ccccc2nc1C [SJ000025189, MC-1626] | > 10 | > 10 | > 10 | > 10 | > 10
6 | > 10 | > 10 | > 10 | Cc1ccc(S(=O)(=O)n2c(N)nc3ccccc32)cc1 [SJ000042554, NODINITIB-1] | > 10 | > 10 | > 10 | > 10 | > 10
7 | > 10 | 5.3 | > 10 | O=C(c1ccc(Cl)cc1Cl)n1nnc2ccccc21 [SJ000142379, ITSA1] | 6.1 | > 10 | 6.2 | > 10 | > 10
8 | > 10 | 4.5 | > 10 | Nc1ncn([C@@H]2O[C@H](CO)[C@@H](O)[C@H]2O)c(=O)n1 [SJ000285227, 5-AZACYTIDINE] | > 10 | 8 | > 10 | > 10 | 6.83
9 | > 10 | > 10 | > 10 | O=C1Nc2ccc(I)cc2/C1=C/c1cc(Br)c(O)c(Br)c1 [SJ000287883, GW 5074] | > 10 | > 10 | > 10 | > 10 | > 10
10 | > 10 | 2 | > 10 | O=c1[nH]c2ccccc2c2ccccc12 [SJ000288131, 6(5H)-PHENANTHRIDINONE] | 2.3 | > 10 | 2.7 | > 10 | > 10
11 | > 10 | > 10 | > 10 | COc1cccc(-c2cc(=O)c3ccccc3o2)c1N [SJ000288145, PD 98059] | > 10 | > 10 | > 10 | > 10 | > 10
12 | > 10 | > 10 | > 10 | N#CC(=C(/N)Sc1ccccc1N)/C(C#N)=C(\N)Sc1ccccc1N [SJ000288250, U0126] | > 10 | > 10 | > 10 | > 10 | > 10
13 | 0.0372 | 0.0056 | 0.24 | CCc1c2c(nc3ccc(O)cc13)-c1cc3c(c(=O)n1C2)COC(=O)[C@]3(O)CC [SJ000311679, SN-38] | 0.00949 | 0.0232 | 0.00251 | 0.0445 | > 10
14 | > 10 | > 10 | > 10 | COc1cc2ncnc(-n3nc(-c4ccccn4)nc3N)c2cc1OC [SJ000510891, CP-466722] | > 10 | > 10 | > 10 | 0.63 | > 10
15 | 0.0364 | 0.0771 | 0.042 | CC(/C=C/C(=O)NO)=C\[C@@H](C)C(=O)c1ccc(N(C)C)cc1 [SJ000534770, TRICHOSTATIN A] | 0.0434 | 0.047 | 0.114 | 0.09 | 0.0442
16 | > 10 | 7.7 | > 10 | C/C(=C\C(=O)Nc1ccccc1C(=O)O)c1ccc2ccccc2c1 [SJ000565230, BIBR-1532] | 5 | > 10 | > 10 | > 10 | > 10
17 | 0.41 | 0.94 | 1.5 | Oc1cccc(-c2nc(N3CCOCC3)c3oc4ncccc4c3n2)c1 [SJ000574285, PIK 103] | > 10 | 3.2 | > 10 | > 10 | > 10
18 | > 10 | 0.14 | 0.057 | COc1cc(Nc2ncc(F)c(Nc3ccc4c(n3)NC(=O)C(C)(C)O4)n2)cc(OC)c1OC [SJ000772392, R406] | > 10 | > 10 | > 10 | > 10 | 0.9
19 | 6.6 | > 10 | > 10 | COc1cc(O)c2c(c1)/C=C/C[C@H](O)[C@H](O)C(=O)/C=C\C[C@H](C)OC2=O [SJ000773172, (5Z)-7-OXOZEAENOL] | 2.1 | 0.37 | 5.5 | 0.84 | 7.3
20 | > 10 | > 10 | > 10 | Nc1[nH]nc2nnc(-c3c(-c4ccccc4)nn4ccccc34)cc12 [SJ000773182, FR 180204] | > 10 | > 10 | > 10 | > 10 | > 10
21 | 1.5 | > 10 | > 10 | O=C(Nc1ccccc1-c1cn2c(CN3CCNCC3)csc2n1)c1cnc2ccccc2n1 [SJ000784238, SRT1720] | 5.6 | > 10 | > 10 | 4.4 | > 10

Row | SMILES | EC50 [1] [µM] | EC50 [6] [µM] | EC50 [8] [µM] | EC50 [2] [µM] | EC50 [3] [µM] | EC50 [4] [µM] | EC50 [5] [µM] | EC50 [7] [µM]
22 | CC(C)(C)c1ccc(S(=O)(=O)/C=C/C#N)cc1 [SJ000287676, BAY 11-7085] | 0.93 | 1.5 | 1.4 | 1.4 | 3.9 | 1 | 3.2 | 3.1
23 | COCCCn1c(N)c(C(=O)NC2CCCC2)c2nc3ccccc3nc21 [SJ000479457, CAY10591] | > 10 | > 10 | > 10 | > 10 | > 10 | > 10 | > 10 | > 10
24 | CO[C@H]1/C=C\C=C(/C)C(=O)NC2=CC(=O)C(NCCN(C)C)=C(C[C@@H](C)C[C@H](OC)[C@H](O)[C@@H](C)/C=C(\C)[C@@H]1OC(N)=O)C2=O [SJ000534765, 17-DMAG] | 0.025 | 0.039 | 0.044 | 0.52 | 0.75 | 0.046 | 2 | 0.092
25 | COc1cc(N2CCC(N3CCN(C)CC3)CC2)ccc1Nc1ncc(Cl)c(Nc2ccccc2S(=O)(=O)C(C)C)n1 [SJ000565231, NVP-TAE684] | > 10 | 0.29 | 0.25 | 3.6 | 0.46 | 0.36 | 3.8 | > 10
26 | Cc1ccccc1-n1c(Cn2cnc3c(N)ncnc32)nc2cccc(C)c2c1=O [SJ000571308, IC-87114] | > 10 | > 10 | > 10 | > 10 | > 10 | > 10 | > 10 | > 10
27 | CCNC(=O)C[C@@H]1N=C(c2ccc(Cl)cc2)c2cc(OC)ccc2-n2c(C)nnc21 [SJ000574791, I-BET-762] | 4.3 | 4.6 | 0.97 | > 10 | > 10 | 9.8 | 0.001 | 9.8
28 | Cc1ccc(NC(=O)CCCCCC(=O)Nc2ccccc2N)cc1 [SJ000784239, PIMELIC DIPHENYLAMIDE 106] | > 10 | > 10 | > 10 | > 10 | > 10 | > 10 | 6.7 | 8.2
